The values that follow are results of earlier work, collected in patent publication US20140105862A1, “STREPTOMYCES MICROFLAVUS STRAINS AND METHODS OF THEIR USE TO CONTROL PLANT DISEASES AND PESTS” (priority 2012, published 2014).

One data set deals with powdery mildew. Conditions: according to GB 1 507 193.
Data set [1] deals with parasites on animals, such as pin worm. Conditions: according to U.S. Pat. No. 3,849,398.
Data set [2] concerns gram-positive, gram-negative bacteria and tubercule bacillus. Conditions: according to U.S. Pat. No. 3,849,398.

With `NC(N)=NCC(O)CC(O)(C(=O)O)[C@H]1O[C@@H](n2cc(CO)c(N)nc2=O)C=C[C@@H]1NC(=O)[C@@H](N)CO` (stereo partly drawn) [Strain B-98891], the antifungal activity entry with powdery mildew was “antifungal activity”.

For `CNCC(=O)NC(CO)C(=O)NC1C(C(N)=O)OC(n2ccc(N)nc2=O)C(O)C1O` (stereo not drawn) [gougerotin], the parasiticidal action entry in data set [1] is on record as “parasiticidal action”. Also, the antibacterial activity result in data set [2] is “weak antibacterial activity”.
